Test [1] concerns the target T1, recombinant human carbonic anhydrase II, wild type, holoprotein (holo-CA, Zn(II) bound) (Homo sapiens, UniProt P00918).
T1 construct: made in house; host or cells: E. coli (inferred from 'as previously described'; b198 states E. coli for the wild type gene, b110 states BL21(DE3)pACA for a variant)
Put plainly: Affinity of ABD-M for holo-CA from changes in fluorescence intensity or anisotropy. Format: binding. Particulars: holocarbonic anhydrase. From the text:
Our approach for determining metal ions by fluorescence anisotropy is diagrammed in FIG. 16. ABD-M was synthesized by coupling ABD-F (7-fluoro-benz-2-oxa-1,3-diazole-4-sulfonamide; Molecular Probes Cat. No.F-6053) with excess beta-mercaptoethanol in dimethylformamide overnight at room temperature (FIG. 17). […] Recombinant human carbonic anhydrase II was expressed, isolated, and purified; and its Zn(II) removed by treatment with dipicolinate all as previously described. In view of the well-known difficulty of reproducibly preparing solutions with low concentrations of free zinc ion, we prepared a series of metal ion buffers using nitrilotriacetic acid (NTA) and MOPS. […] The concentration of Zn(II) unbound at a particular pH is readily calculable from the known stability constants of the NTA and the pKa's of NTA's ionizable groups (19). […]
Fluorescence spectra, intensities and anisotropies were measured on a Spectronics AB-2 fluorimeter using film polarizers and 4 nm bandpasses. Frequency-dependent phase shifts and demodulations were measured on an ISS K2 phase fluorometer using the UV lines of a Spectra-Physics 2065 argon ion laser for excitation, dimethylPOPOP in ethanol as a reference compound as previously described, and bandpass filters as indicated in the figure legends. […]

The target in test [2] is T2, wild type human carbonic anhydrase II, holoprotein (holo-CA) (Homo sapiens, UniProt P00918).
T2 construct: made in house; host or cells: E. coli
Briefly: KD of the diffusible inhibitor ABD-N for the holoprotein. Format: binding. As to the method:
Genes for wild type human carbonic anhydrase II and variants were isolated, constructed, and expressed in E. coli as previously described. ABD-N was synthesized by coupling ABD-F (Molecular Probes, Eugene, Oreg.) with excess ethanolamine in DMF at room temperature for 4 hours and lyophilizing. Zn(II) was removed from holo-CA to make apo-CA by treatment with dipicolinate as previously described. Fluorescence anisotropy measurements were obtained on an SLM AB-2 spectrophotofluorimeter according to the manufacturer's recommendations, under the spectral conditions given in the figures.
The changes in anisotropy are also dramatic, going from 0.08 to 0.23 as the apoprotein becomes saturated with Zn(II) (FIG. 37); the ordinary accuracy and precision of such measurements is ±0.003. The apparent KD of the enzyme for Zn(II) under these conditions is about 20 picomolar, which is somewhat higher than published values obtained under slightly different conditions.
The use of a separate, diffusible inhibitor like ABD-N can create difficulties, however. […] This Cu(II) determination, while clearly representing a […] response, cannot be due to simple collisional quenching by the Cu(II) at these low concentrations,and furthermore is more than one thousand-fold more sensitive than previous fluorescence-based determinations of Cu(II).

The target in test [3] is T3, recombinant human carbonic anhydrase II, holocarbonic anhydrase II (Homo sapiens, UniProt P00918).
T3 construct: made in house; host or cells: E. coli (inferred from 'by the means previously discussed herein'; b110 states E. coli BL21(DE3)pACA for a variant)
Put plainly: Affinity of holocarbonic anhydrase for Dapoxyl sulfonamide from fluorescence intensity changes. It counts as binding. The note with it: from fluorescence intensity changes (data not shown). On the procedure:
The recombinant human carbonic anhydrase II was obtained by the means previously discussed herein. Fluorescence spectra and anisotropies were determined on a Spectronics AB-2 spectrophotofluorometer; the former are uncorrected. Fluorescence lifetimes were determined on an ISS K2 multifrequency phase fluorometer using the 442 nm line (30 mW) of a Kimmon HeCd laser (for BTCS) or the ultraviolet lines (100 mW) of a Spectra-Physics model 2065-7S argon ion laser (for dapoxyl sulfonamide) essentially as previously described. […]
In particular, emission of the bound form shifts from a peak at 605 nm to 530 nm, and increases about 90-fold, compared to the free form. […] The advantages of intensity ratios for accuracy in quantitating concentrations of metal ions such as calcium are by now widely appreciated. These intensity changes permit the affinity of holocarbonic anhydrase for Dapoxyl sulfonamide to be determined as […] (data not shown). The intensity increase of dapoxyl sulfonamide is also accompanied by a large increase in fluorescence lifetime. We measured the frequency-dependent phase angles and demodulation of dapoxyl sulfonamide free in solution, in the presence of holocarbonic anhydrase II, and in the presence of sonicated unilamellar vesicles of DOPC/cholesterol 3:1 (0.1 M). […]

Test [4] concerns the target T1, recombinant human carbonic anhydrase II, wild type, holoprotein (holo-CA, Zn(II) bound). Particulars: comparison value, conditions not given; read-out: affinity (dansylamide, comparison value); cited from earlier work.

This is an account of results in US6197258A, “Photoluminescent sensors of chemical analytes” (University of Maryland, Baltimore, priority 1999, dated 2001).

Structures are written as SMILES. Like-named read-outs stand apart in the source and are kept apart here.

Take `NS(=O)(=O)c1ccc(SCCO)c2nonc12` [ABD-M, 7-fluorobenz-2-oxa-1,3,-diazole-4-sulfonamide+beta-mercaptoethanol adduct]: in test [1], the Kd was found to be 300 nM. In test [2], `NS(=O)(=O)c1ccc(NCCO)c2nonc12` [ABD-N, 7-fluorobenz-2-oxa-1,3,-diazole-4-sulfonamide:ethanolamine adduct] returned a Kd of roughly 300 nM. `CN(C)c1ccc(-c2cnc(-c3ccc(S(N)(=O)=O)cc3)o2)cc1` [Dapoxyl sulfonamide]: in test [3], the Kd was 300 nM. As to `CN(C)c1cccc2c(S(N)(=O)=O)cccc12` [dansylamide], the Kd in test [4] was 800 nM.
